# From US20260248923A1, “BI-SPECIFIC ADAPTERS AND THEIR USE WITH UNIVERSAL CAR-T CELLS IN THE TREATMENT OF TUMORS AND THE INHIBITION OF CANCER-ASSOCIATED FIBROBLASTS” (priority 2023, published 2026)
# Read-outs that look alike come from different tables or passages of the source.
# Assays:
# [1] = test system: MDA-MB-231-PSMA tumor cells; settings: mouse, in vivo
# Protocol: (§3) The mice were euthanized at the indicated time points after injection. Tumors were dissected and dissociated into single cells. Fluorescent intensity of FITC indicating the total retention of the adapters in the tumor cells were analyzed by flow cytometry. To analyze the surface retention of the adapters on the tumor cell surface, the dissociated tumor cells were stained with APC-anti-FITC antibody, and the fluorescent intensity of APC was analyzed by flow cytometry.
# 22Rv1 tumor = 22Rv1 tumor in NSG mice with anti-FITC CAR T cells; type: in vivo; settings: 10 million anti-FITC CAR T cells
# [2] = test system: MDA-PSMA tumors (high PSMA level); assay: MDA-PSMA tumor in NSG mice with anti-FITC CAR T-cells; settings: for eradication of MDA-PSMA tumors: 10 million anti-FITC CAR T-cells
# Protocol: MDA-PSMA cells (high PSMA level; 5 million cells) were implanted into each NSG mouse by subcutaneous injection. […] The tumor volume and body weight were monitored regularly. Tumor volume was calculated using the formula: (length*width^2)/2. […] MDA-PSMA cells (5 million) were implanted into each NSG mouse by subcutaneous injection. […] The volumes of the tumors and the body weights of the mice were monitored regularly. Tumor volume was calculated using the formula: (length*width^2)/2.
# 22Rv1 cells [3] = assay: Retention in 22Rv1 cells in vitro; type: cell-based; settings: 1 μM one hour, washed, 37 C
# Protocol: (§1) Unbound compounds were washed away, and the cells were cultured in RPMI containing 10% FBS at 37° C. with 5% CO2. At indicated time points, the cells were imaged under a confocal microscope to analyze the intensity and location of FITC. […] To analyze the surface-bound FITC, the cells were stained with APC-anti-FITC antibody for 30 minutes on ice at different time points. The fluorescence intensity of APC was analyzed by flow cytometer.
# 22Rv1 cells [4] = assay: 22Rv1 / anti-FITC CAR T co-culture, 48 hours; type: cell-based
# Protocol: The number of 22Rv1 cells was counted at the end of the co-culture. The cytotoxicity of anti-FITC CAR T cells was calculated using the formula: (number of untreated 22Rv1 cells−number of treated 22Rv1 cells)/number of untreated 22Rv1 cells*100%. Concentrations of IFNγ in the co-culture medium were analyzed by ELISA using human IFNγ ELISA kit (Biolegend).
# PSMA [5] = target: T1, PSMA (Homo sapiens, UniProt Q04609); assay: Binding to MDA-PSMA cells by flow cytometry (MFI of FITC)
# T1 construct: expressed in transfected cells; host or cells: MDA-MB-231 (MDA-PSMA / PSMA+ MDA-MB-231)
# T1 sequence (Q04609 whole entry): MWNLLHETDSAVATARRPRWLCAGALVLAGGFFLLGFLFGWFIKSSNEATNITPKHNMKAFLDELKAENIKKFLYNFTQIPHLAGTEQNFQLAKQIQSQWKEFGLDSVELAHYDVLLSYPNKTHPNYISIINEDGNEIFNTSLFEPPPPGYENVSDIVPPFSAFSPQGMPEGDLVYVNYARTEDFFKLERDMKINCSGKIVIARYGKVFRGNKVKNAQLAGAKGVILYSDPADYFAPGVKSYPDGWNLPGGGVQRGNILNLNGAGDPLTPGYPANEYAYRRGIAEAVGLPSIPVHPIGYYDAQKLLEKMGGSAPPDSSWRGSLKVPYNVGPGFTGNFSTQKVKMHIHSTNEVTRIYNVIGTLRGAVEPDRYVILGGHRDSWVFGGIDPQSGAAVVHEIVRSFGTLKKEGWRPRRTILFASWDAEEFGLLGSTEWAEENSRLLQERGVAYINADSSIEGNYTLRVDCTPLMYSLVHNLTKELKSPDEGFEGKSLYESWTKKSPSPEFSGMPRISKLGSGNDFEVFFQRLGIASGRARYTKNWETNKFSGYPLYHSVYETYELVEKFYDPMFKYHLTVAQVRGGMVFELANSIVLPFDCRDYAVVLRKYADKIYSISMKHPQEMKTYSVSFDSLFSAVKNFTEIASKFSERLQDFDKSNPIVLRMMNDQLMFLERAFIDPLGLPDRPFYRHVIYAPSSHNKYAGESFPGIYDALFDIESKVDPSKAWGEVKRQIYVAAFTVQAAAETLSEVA
# Protocol: (§2) MDA-PSMA cells (0.2 million) were incubated with 2-fold serial diluted adapters starting from 500 nM in complete RPMI medium (RPMI+10% FBS) for 1 hour at room temperature. Cells were washed twice with 2% FBS in PBS and resuspended in the same buffer. Fluorescent intensity of fluorescein isothiocyanate (FITC) was analyzed by flow cytometer.
# MDA-PSMA cells (0.2 million) were incubated with 1 μM of DUPA-FITC conjugates with different PEG linkers in complete RPMI medium (RPMI+10% FBS) for 1 hour at room temperature. Free compounds were washed away, and fluorescent intensity of FITC was analyzed by flow cytometer. To analyze the surface exposure of FITC moiety, the stained cells were incubated with APC-anti-FITC on ice for 30 minutes.
# as §2, with “FITC” for “fluorescein isothiocyanate (FITC)”
# PSMA [6] = target: T1, PSMA; assay: SurfaceTag on-cell binding to PSMA+ MDA-MB-231 tumor cells
# Protocol: PSMAL1-PEG6-FITC strongly localizes on the surface of PSMA-positive tumor cells. To characterize the on-cell binding affinity of PSMAL1-PEG6-FITC to PSMA-expressing tumor cells, different concentrations of PSMAL1-PEG6-FITC were incubated with […] tumor cells that either over-expressed PSMA (PSMA^+) or were wildtype (PSMA−). Levels of surface fluorescein antigen on MDA-MB-321 tumor cells were detected using an anti-fluorescein antibody (FIG. 44A).
# [7] = test system: TagCAR (universal anti-fluorescein CAR); assay: Competition assay against FL-AF647 on TagCAR T cells; type: binding; settings: Ki=IC50/(1+[S]/Km), [FL-AF647]=100 nM, triplicates from different donors; read-out: mean calculated inhibitor constant (Ki)
# Protocol: PSMAL1-PEG6-FITC strongly binds to TagCAR T cells generated using TagCAR lentiviral particles. […] Due to fluorescein fluorescence being quenched when bound by TagCAR, TagCAR T cells were instead incubated with saturating levels of FL-AF647, which was then competed off by increasing concentrations of PSMAL1-PEG6-FITC. As compared to the antigen-only control sodium fluorescein (NaFL), lower concentrations of PSMAL1-PEG6-FITC were necessary to compete with FL-AF647, as detected by the mean fluorescent intensity (MFI) of FL-AF647.
# [8] = test system: MDA-MB-231-PSMA tumor cells; assay: Total and surface retention of adapters on MDA-PSMA tumor cells in vivo (flow cytometry)
# Protocol: as §3
# MDA-MB-231-PSMA tumors = assay: Fluorescent imaging of MDA-PSMA tumor bearing mice; type: in vivo; settings: 500 nmol/kg intravenously
# Source text: MDA-PSMA tumor bearing mice were intravenously injected with the indicated adapters at 500 nmol/kg. Fluorescent images of the mice were taken in the Spectral Ami imaging system at the indicated time points after injection.
# [9] = test system: PSMA+ MDA-MB-231 tumor cells; assay: TagCAR T cell coculture with PSMA-overexpressing MDA-MB-231 tumor cells; type: cell-based
# Protocol: PSMAL1-PEG6-FITC elicits dose-dependent TagCAR T cell function in vitro. The efficacy of TagCAR T cells generated as described in Example 42 mediated by PSMAL1-PEG6-FITC on PSMA-positive tumor cells was investigated in vitro. The normalized fold tumor cell growth of PSMA-overexpressing (PSMA^+) MDA-MB-231 tumor cells was measured every four hours during an 88-hour coculture of PSMA^+ MD-MB-231 tumor cells and different concentrations of PSMAL1-PEG6-FITC in the presence of TagCAR T cells generated as described in Example 42.
# In addition, cytokine levels were measured in culture supernatants 24 hours following the addition of TagCAR T cells generated as described in Example 42 and different concentrations of PSMAL1-PEG6-FITC to PSMA MD-MB-231 tumor cells.
# The presence of TagCAR+ cells (FIG. 45C) and presence of CD25+(FIG. 45D) in CD3+ T cells were also measured after 88 hours of coculture with PSMA^+ MDA-MB-231 tumor cells with different concentrations of PSMAL1-PEG6-FITC. CD3+ T cells with TagCAR had higher percentages of CD25+ as compared to CD3+ T cells without TagCAR.
# MDA-PSMA cells = assay: Retention in MDA-PSMA cells in vitro (confocal, flow cytometry); type: cell-based; settings: 1 μM one hour, washed, 37 C
# Protocol: as §1
smiles,measurement,setting,value
"CC(C)(C)OC(=O)CC[C@H](NC(=O)N[C@@H](CCC(=O)OCc1ccccc1)C(=O)OC(C)(C)C)C(=O)OC(C)(C)C (stereo in doubt) [DUPA-PEG6-FITC, 2-[3-(3-Benzyloxycarbonyl-1-tert-butoxycarbonyl-propyl)-ureido]pentanedioic Acid Di tert-butyl Ester]",tumor cells that retained adapter on the surface,[1],9%
same,tumor cells that still had adapter in the cells (total FITC),[1],13%
same,growth of 22Rv1 tumor,22Rv1 tumor,didn't show much efficacy
same,eradication of MDA-PSMA tumors,[2],good efficacy on eliminating MDA-PSMA tumors
same,body weight loss,"[2]; mouse, in vivo",no body weight loss was observed
O=C(O)CC[C@H](NC(=O)N[C@@H](CCCCNC(=O)[C@H](Cc1ccc2ccccc2c1)NC(=O)[C@H]1CC[C@H](CNC(=O)CCOCCOCCOCCOCCOCCOCCNC(=S)Nc2ccc(-c3c4ccc(=O)cc-4oc4cc(O)ccc34)c(C(=O)O)c2)CC1)C(=O)O)C(=O)O [PSMAL1-PEG6-FITC],retention in 22Rv1 cells (flow cytometry),22Rv1 cells [3],stayed longer in 22Rv1 cells
same,growth of 22Rv1 tumor,22Rv1 tumor,inhibited the growth of 22Rv1 tumor significantly
same,lysis of 22Rv1 cells by anti-FITC CAR-T cells,22Rv1 cells [4]; low concentration,much higher than DUPA-PEG6-FITC at low concentration
same,IFNγ secreted by anti-FITC CAR-T cells,22Rv1 cells [4]; low concentrations,higher than DUPA-PEG6-FITC at low concentrations
same,binding affinity relative to DUPA-PEG6-FITC,PSMA [5],five-fold higher
same,binding affinity and total binding (MFI of FITC),PSMA [5]; 1 hour room temperature,Higher Binding Affinity and Higher Total Binding than DUPA-PEG6-FITC
same,Bmax (total antigen amount),PSMA [6]; PSMA+ tumor cells,2.6×10^6 MFI
same,Kd,"PSMA [6]; PSMA+ tumor cells, anti-fluorescein antibody, read-out: Kd (on-cell binding affinity)",1.29 nM
same,localization on surface of PSMA-expressing tumor cells,PSMA [6]; PSMA+ vs PSMA- cells,specifically localized on the surface of PSMA-expressing tumors
same,Ki,[7],9.9 nM
same,tumor cells that retained adapter on the surface,[8]; 48 hours post-injection,65%
same,tumor cells that still had adapter in the cells (total FITC),[8]; 48 hours post-injection,77%
same,tumor cells that retained adapter (total FITC),[8]; 144 hours post-injection,45%
same,tumor cells that retained adapter on the surface,[8]; 144 hours post-injection,34%
same,retention in MDA-MB-231-PSMA tumors (fluorescent images),MDA-MB-231-PSMA tumors,Better Retention in MDA-MB-231-PSM4 Tumors than DUPA-PEG6-FITC and DUPA-FITC
same,eradication of MDA-PSMA tumors,[2],good efficacy on eliminating MDA-PSMA tumors
same,body weight loss,[2]; during treatment,no body weight loss was observed
same,normalized fold tumor cell growth,[9]; 88-hour coculture with TagCAR T cells,tumor size decreased
same,IFNg and IL-2 levels in culture supernatants,[9]; 24 hours,increased with increasing doses
same,retention in MDA-MB-231-PSMA cells (confocal images),MDA-PSMA cells,stayed longer in MDA-MB-231-PSMA cells than DUPA-PEG6-FITC
same,retention in MDA-PSMA cells expressing different levels of PSMA (flow cytometry),MDA-PSMA cells,stayed longer in MDA-PSMA cells expressing different levels of PSMA than DUPA-PEG6-FITC
